From patent US8741897B2, “Glucocorticoid mimetics, methods of making them, pharmaceutical compositions and uses thereof” (Boehringer Ingelheim Pharmaceuticals Inc., priority 2003, dated 2014)

Tests used:
[1] = molecular target: T1, human glucocorticoid receptor (GR) complex (Homo sapiens, UniProt P04150); assay: Glucocorticoid receptor competitive binding assay (fluorescence polarization, TAMRA-labeled dexamethasone probe); conditions: compounds of Formula (IA)
T1 construct: made in house; host or cells: insect expression system (baculovirus lysate)
T1 sequence (P04150 1-777): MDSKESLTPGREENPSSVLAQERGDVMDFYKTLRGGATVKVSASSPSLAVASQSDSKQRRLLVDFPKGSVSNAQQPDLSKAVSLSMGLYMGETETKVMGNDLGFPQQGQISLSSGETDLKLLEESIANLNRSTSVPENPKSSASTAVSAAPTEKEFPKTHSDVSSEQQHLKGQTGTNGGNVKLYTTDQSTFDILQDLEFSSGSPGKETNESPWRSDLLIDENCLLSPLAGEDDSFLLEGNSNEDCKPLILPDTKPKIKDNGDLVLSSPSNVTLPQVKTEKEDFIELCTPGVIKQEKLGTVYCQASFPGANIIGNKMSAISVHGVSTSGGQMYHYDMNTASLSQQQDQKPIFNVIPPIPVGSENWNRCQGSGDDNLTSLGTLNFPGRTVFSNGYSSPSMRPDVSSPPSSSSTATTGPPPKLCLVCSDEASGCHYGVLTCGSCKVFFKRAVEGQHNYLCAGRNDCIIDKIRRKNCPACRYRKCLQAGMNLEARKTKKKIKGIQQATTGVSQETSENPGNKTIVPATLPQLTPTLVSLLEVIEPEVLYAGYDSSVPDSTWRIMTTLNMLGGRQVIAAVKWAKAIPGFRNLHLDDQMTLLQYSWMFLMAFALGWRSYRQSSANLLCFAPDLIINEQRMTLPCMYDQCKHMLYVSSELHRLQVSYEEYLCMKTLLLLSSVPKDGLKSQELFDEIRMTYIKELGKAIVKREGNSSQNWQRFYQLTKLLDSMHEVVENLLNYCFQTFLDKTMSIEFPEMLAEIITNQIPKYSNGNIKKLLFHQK
Procedure, shortened: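 Fluorescence-polarization competition against 15 nM TAMRA-dexamethasone (stock added to the mix) for human GR complex from baculovirus lysate diluted 1:170. Buffer: 10 mM TES, 50 mM KCl, 20 mM Na2MoO4, 1.5 mM EDTA, 0.04% CHAPS, 10% glycerol, 1 mM DTT, pH 7.4. IC50 from 4-parameter logistic fit.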

[2] = test system: glucocorticoid receptor function; assay: one or more of the above assays (GR binding and glucocorticoid receptor cell assays: aromatase, IL-6, TAT, MMTV-Luc, IL-8, ICAM-Luc); assay type: cell-based; conditions: assay not specified per compound

CSc1cc2c(c(C(C)(C)CC(O)(Cc3[nH]c4ccccc4c3C#N)C(F)(F)F)c1)OCC2 (stereo not shown) [2-[2-Hydroxy-4-methyl-4-(5-methylsulfanyl-2,3-dihydrobenzofuran-7-yl)-2-trifluoromethylpentyl]-1H-indole-3-carbonitrile]
activity in the GR binding assay [1]: potent activity
activity as agonists of the glucocorticoid receptor function in one or more of the above assays [2]: potent agonists

COc1ccc(F)cc1C(C)(C)CC(O)(Cc1cc(C)nc2ccccc12)C(F)(F)F (stereo not shown) [1,1,1-Trifluoro-4-(5-fluoro-2-methoxyphenyl)-4-methyl-2-(2-methylquinolin-4-ylmethyl)pentan-2-ol]
activity in the GR binding assay [1]: potent activity
activity as agonists of the glucocorticoid receptor function in one or more of the above assays [2]: potent agonists

Cc1ccc(O)c(C(C)(C)CC(O)(Cc2cc3c(C)cc(C#N)cc3[nH]2)C(F)(F)F)c1 (stereo not shown) [2-[2-Hydroxy-4-(2-hydroxy-5-methylphenyl)-4-methyl-2-trifluoromethylpentyl]-4-methyl-1H-indole-6-carbonitrile]
activity in the GR binding assay [1]: potent activity
activity as agonists of the glucocorticoid receptor function in one or more of the above assays [2]: potent agonists

Cc1cc2c(c(C(C)(C)CC(O)(Cc3cc4cnccc4[nH]3)C(F)(F)F)c1)OCC2 (stereo not shown) [1,1,1-Trifluoro-4-methyl-4-(5-methyl-2,3-dihydrobenzofuran-7-yl)-2-(1H-pyrrolo[3,2-c]pyridin-2-ylmethyl)pentan-2-ol]
activity in the GR binding assay [1]: potent activity
activity as agonists of the glucocorticoid receptor function in one or more of the above assays [2]: potent agonists

CC(C)(CC(O)(Cc1cc2cnccc2[nH]1)C(F)(F)F)c1cc(F)cc2c1OCC2 (stereo not shown) [1,1,1-Trifluoro-4-(5-fluoro-2,3-dihydrobenzofuran-7-yl)-4-methyl-2-(1H pyrrolo[3,2-c]pyridin-2-ylmethyl)pentan-2-ol]
activity in the GR binding assay [1]: potent activity
activity as agonists of the glucocorticoid receptor function in one or more of the above assays [2]: potent agonists

COc1ccc(F)cc1C(C)(C)CC(O)(Cc1cc2cnncc2s1)C(F)(F)F (stereo not shown) [1,1,1-Trifluoro-4-(5-fluoro-2-methoxyphenyl)-4-methyl-2-thieno[2,3-d]pyridazin-2-ylmethylpentan-2-ol]
activity in the GR binding assay [1]: potent activity
activity as agonists of the glucocorticoid receptor function in one or more of the above assays [2]: potent agonists

Cc1ccc(F)cc1C(C)(C)CC(O)(Cc1ccnc2ccccc12)C(F)(F)F (stereo not shown) [1,1,1-Trifluoro-4-(5-fluoro-2-methylphenyl)-4-methyl-2-quinolin-4-ylmethylpentan-2-ol]
activity in the GR binding assay [1]: potent activity
activity as agonists of the glucocorticoid receptor function in one or more of the above assays [2]: potent agonists

COc1ccc(C)cc1C(C)(C)CC(O)(Cc1cc2ccccc2[nH]1)C(F)(F)F (stereo not shown) [1,1,1-Trifluoro-2-(1H-indol-2-ylmethyl)-4-(2-methoxy-5-methylphenyl)-4-methylpentan-2-ol]
activity in the GR binding assay [1]: potent activity
activity as agonists of the glucocorticoid receptor function in one or more of the above assays [2]: potent agonists

Cc1cc(CC(O)(CC(C)(C)c2cc(F)ccc2C)C(F)(F)F)cc(C)n1 (stereo not shown) [2-(2,6-Dimethylpyridin-4-ylmethyl)-1,1,1-trifluoro-4-(5-fluoro-2-methylphenyl)-4-methylpentan-2-ol]
activity in the GR binding assay [1]: potent activity
activity as agonists of the glucocorticoid receptor function in one or more of the above assays [2]: potent agonists

COc1ccc(F)cc1C(C)(C)CC(O)(Cc1cc2ccnc(F)c2[nH]1)C(F)(F)F (stereo not shown) [1,1,1-Trifluoro-4-(5-fluoro-2-methoxyphenyl)-2-(7-fluoro-1H-pyrrolo[2,3-c]pyridin-2-ylmethyl)-4-methylpentan-2-ol]
activity in the GR binding assay [1]: potent activity
activity as agonists of the glucocorticoid receptor function in one or more of the above assays [2]: potent agonists

COc1ccc(F)cc1C(C)(C)CC(O)(Cc1cc2cc(C(=O)N3CCOCC3)ccc2[nH]1)C(F)(F)F (stereo not shown) [{2-[4-(5-Fluoro-2-methoxyphenyl)-2-hydroxy-4-methyl-2-trifluoromethylpentyl]-1H-indol-5-yl}morpholin-4-ylmethanone]
activity in the GR binding assay [1]: potent activity
activity as agonists of the glucocorticoid receptor function in one or more of the above assays [2]: potent agonists

COc1cc(F)ccc1C(C)(C)CC(O)(Cc1cc2c(C)ccc(F)c2[nH]1)C(F)(F)F (stereo not shown) [1,1,1-Trifluoro-4-(4-fluoro-2-methoxyphenyl)-2-(7-fluoro-4-methyl-1H-indol-2-ylmethyl)-4-methylpentan-2-ol]
activity in the GR binding assay [1]: potent activity
activity as agonists of the glucocorticoid receptor function in one or more of the above assays [2]: potent agonists

CC(C)(CC(O)(Cc1cc(Cl)nc2ccc(Cl)cc12)C(F)(F)F)c1cc(F)ccc1O (stereo not shown) [2-[3-(2,6-Dichloroquinolin-4-ylmethyl)-4,4,4-trifluoro-3-hydroxy-1,1-dimethylbutyl]-4-fluorophenol]
activity in the GR binding assay [1]: potent activity
activity as agonists of the glucocorticoid receptor function in one or more of the above assays [2]: potent agonists

Cc1cc2c(c(C(C)(C)CC(O)(Cc3cc4ccncc4[nH]3)C(F)(F)F)c1)OCC2 (stereo not shown) [1,1,1-Trifluoro-4-methyl-4-(5-methyl-2,3-dihydrobenzofuran-7-yl)-2-(1H-pyrrolo[2,3-c]pyridin-2-ylmethyl)pentan-2-ol]
activity in the GR binding assay [1]: potent activity
activity as agonists of the glucocorticoid receptor function in one or more of the above assays [2]: potent agonists

COc1ccc(F)cc1C(C)(C)CC(O)(Cc1cc2ccncc2s1)C(F)(F)F (stereo not shown) [1,1,1 -Trifluoro-4-(5-fluoro-2-methoxyphenyl)-4-methyl-2-thieno[2,3-c]pyridin-2-ylmethylpentan-2-ol]
activity in the GR binding assay [1]: potent activity
activity as agonists of the glucocorticoid receptor function in one or more of the above assays [2]: potent agonists

CC(C)(CC(O)(Cc1cc2nc(C#N)ccc2[nH]1)C(F)(F)F)c1cc(Cl)cc2c1OCC2 (stereo not shown) [2-[4-(5-Chloro-2,3-dihydrobenzofuran-7-yl)-2-hydroxy-4-methyl-2-trifluoromethylpentyl]-1H-pyrrolo[3,2-b]pyridine-5-carbonitrile]
activity in the GR binding assay [1]: potent activity
activity as agonists of the glucocorticoid receptor function in one or more of the above assays [2]: potent agonists

Cc1cc2[nH]c(CC(O)(CC(C)(C)c3cc(F)ccc3C)C(F)(F)F)cc2cn1 (stereo not shown) [1,1,1-Trifluoro-4-(5-fluoro-2-methylphenyl)-4-methyl-2-(6-methyl-1H-pyrrolo[3,2-c]pyridin-2-ylmethyl)pentan-2-ol]
activity in the GR binding assay [1]: potent activity
activity as agonists of the glucocorticoid receptor function in one or more of the above assays [2]: potent agonists

COC(=O)CCCNC(=O)c1ccc2[nH]c(CC(O)(CC(C)(C)c3cc(F)ccc3OC)C(F)(F)F)cc2c1 (stereo not shown) [4-({2-[4-(5-Fluoro-2-methoxyphenyl)-2-hydroxy-4-methyl-2-trifluoromethylpentyl]-1H-indole-5-carbonyl}amino)butyric acid methyl ester]
activity in the GR binding assay [1]: potent activity
activity as agonists of the glucocorticoid receptor function in one or more of the above assays [2]: potent agonists

COc1ccc(F)cc1C(C)(C)CC(O)(Cc1cc2cncnc2[nH]1)C(F)(F)F (stereo not shown) [1,1,1-Trifluoro-4-(5-fluoro-2-methoxyphenyl)-4-methyl-2-(7H-pyrrolo[2,3-d]pyrimidin-6-ylmethyl)pentan-2-ol]
activity in the GR binding assay [1]: potent activity
activity as agonists of the glucocorticoid receptor function in one or more of the above assays [2]: potent agonists

Cc1ccc(F)cc1C(C)(C)CC(O)(Cc1cc2nc(C#N)ccc2[nH]1)C(F)(F)F (stereo not shown) [2-[4-(5-Fluoro-2-methylphenyl)-2-hydroxy-4-methyl-2-trifluoromethylpentyl]-1H-pyrrolo[3,2-b]pyridine-5-carbonitrile]
activity in the GR binding assay [1]: potent activity
activity as agonists of the glucocorticoid receptor function in one or more of the above assays [2]: potent agonists

CC(C)(CC(O)(Cn1ccc2ncccc21)C(F)(F)F)c1cc(Cl)cc2c1OCC2 (stereo not shown) [4-(5-Chloro-2,3-dihydrobenzofuran-7-yl)-1,1,1-trifluoro-4-methyl-2-pyrrolo[3,2-b]pyridin-1-ylmethylpentan-2-ol]
activity in the GR binding assay [1]: potent activity
activity as agonists of the glucocorticoid receptor function in one or more of the above assays [2]: potent agonists

CC(C)(CC(O)(Cc1cc2ccncc2[nH]1)C(F)(F)F)c1cc(Br)cc2c1OCC2 (stereo not shown) [4-(5-Bromo-2,3-dihydrobenzofuran-7-yl)-1,1,1-trifluoro-4-methyl-2-(1H-pyrrolo[2,3-c]pyridin-2-ylmethyl)pentan-2-ol]
activity in the GR binding assay [1]: potent activity
activity as agonists of the glucocorticoid receptor function in one or more of the above assays [2]: potent agonists

CC(C)(C)c1ccc(O)c(C(C)(C)CC(O)(Cc2[nH]c3ccccc3c2C#N)C(F)(F)F)c1 (stereo not shown) [2-[4-(5-tert-Butyl-2-hydroxyphenyl)-2-hydroxy-4-methyl-2-trifluoromethylpentyl]-1H-indole-3-carbonitrile]
activity in the GR binding assay [1]: potent activity
activity as agonists of the glucocorticoid receptor function in one or more of the above assays [2]: potent agonists
